{"source": "ChEMBL document CHEMBL5715260", "about": "“Selectivity Literature for EUbOPEN Chemogenomic Library” (2024)", "key": {"[1]": {"biological_target": "cGMP-specific 3',5'-cyclic phosphodiesterase (Homo sapiens) (UniProt O76074)", "assay": "Selectivity interaction (Enzymatic assay) EUB0002694a PDE5A", "parameters": "recommended concentration 1 uM", "conditions": "at 10 µM"}, "[2]": {"biological_target": "cAMP and cAMP-inhibited cGMP 3',5'-cyclic phosphodiesterase 10A (Homo sapiens) (UniProt Q9Y233)", "sequence (Q9Y233 whole entry)": "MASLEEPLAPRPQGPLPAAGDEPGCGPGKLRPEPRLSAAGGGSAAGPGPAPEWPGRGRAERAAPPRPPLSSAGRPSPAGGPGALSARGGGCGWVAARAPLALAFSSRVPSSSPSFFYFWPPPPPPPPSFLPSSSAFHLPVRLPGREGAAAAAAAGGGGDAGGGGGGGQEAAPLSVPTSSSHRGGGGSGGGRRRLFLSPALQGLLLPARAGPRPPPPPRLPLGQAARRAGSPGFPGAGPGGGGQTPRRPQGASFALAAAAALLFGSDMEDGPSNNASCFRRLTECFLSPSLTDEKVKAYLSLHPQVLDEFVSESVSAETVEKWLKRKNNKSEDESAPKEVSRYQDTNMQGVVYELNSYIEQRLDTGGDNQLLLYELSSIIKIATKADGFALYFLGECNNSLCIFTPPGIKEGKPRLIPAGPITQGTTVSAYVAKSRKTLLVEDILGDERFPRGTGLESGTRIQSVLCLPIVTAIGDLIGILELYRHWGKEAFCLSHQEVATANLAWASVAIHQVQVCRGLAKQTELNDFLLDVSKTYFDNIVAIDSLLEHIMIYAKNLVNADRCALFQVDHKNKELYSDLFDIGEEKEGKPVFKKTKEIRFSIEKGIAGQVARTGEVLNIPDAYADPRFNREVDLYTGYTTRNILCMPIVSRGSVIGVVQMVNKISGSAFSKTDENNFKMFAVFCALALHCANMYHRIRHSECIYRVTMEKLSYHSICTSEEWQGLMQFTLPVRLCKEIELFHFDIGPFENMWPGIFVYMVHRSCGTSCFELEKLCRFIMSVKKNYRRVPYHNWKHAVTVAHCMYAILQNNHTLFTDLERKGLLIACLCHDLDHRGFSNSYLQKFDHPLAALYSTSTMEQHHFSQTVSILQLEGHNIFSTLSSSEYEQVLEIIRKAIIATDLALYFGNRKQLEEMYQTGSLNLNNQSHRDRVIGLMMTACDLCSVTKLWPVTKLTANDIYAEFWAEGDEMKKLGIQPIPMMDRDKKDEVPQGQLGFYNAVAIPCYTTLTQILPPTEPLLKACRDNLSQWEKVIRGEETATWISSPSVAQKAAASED", "assay": "Selectivity interaction (Enzymatic assay) EUB0002694a PDE10A", "parameters": "recommended concentration 1 uM", "conditions": "at 10 µM"}, "[3]": {"biological_target": "Bromodomain-containing protein 4 (Homo sapiens, UniProt O60885)", "assay": "Selectivity interaction (Proteomics) EUB0000269cCl BRD4", "parameters": "recommended concentration 1 uM"}, "[4]": {"biological_target": "Lysine-specific histone demethylase 2 (Homo sapiens, UniProt Q8NB78)", "sequence (Q8NB78 whole entry)": "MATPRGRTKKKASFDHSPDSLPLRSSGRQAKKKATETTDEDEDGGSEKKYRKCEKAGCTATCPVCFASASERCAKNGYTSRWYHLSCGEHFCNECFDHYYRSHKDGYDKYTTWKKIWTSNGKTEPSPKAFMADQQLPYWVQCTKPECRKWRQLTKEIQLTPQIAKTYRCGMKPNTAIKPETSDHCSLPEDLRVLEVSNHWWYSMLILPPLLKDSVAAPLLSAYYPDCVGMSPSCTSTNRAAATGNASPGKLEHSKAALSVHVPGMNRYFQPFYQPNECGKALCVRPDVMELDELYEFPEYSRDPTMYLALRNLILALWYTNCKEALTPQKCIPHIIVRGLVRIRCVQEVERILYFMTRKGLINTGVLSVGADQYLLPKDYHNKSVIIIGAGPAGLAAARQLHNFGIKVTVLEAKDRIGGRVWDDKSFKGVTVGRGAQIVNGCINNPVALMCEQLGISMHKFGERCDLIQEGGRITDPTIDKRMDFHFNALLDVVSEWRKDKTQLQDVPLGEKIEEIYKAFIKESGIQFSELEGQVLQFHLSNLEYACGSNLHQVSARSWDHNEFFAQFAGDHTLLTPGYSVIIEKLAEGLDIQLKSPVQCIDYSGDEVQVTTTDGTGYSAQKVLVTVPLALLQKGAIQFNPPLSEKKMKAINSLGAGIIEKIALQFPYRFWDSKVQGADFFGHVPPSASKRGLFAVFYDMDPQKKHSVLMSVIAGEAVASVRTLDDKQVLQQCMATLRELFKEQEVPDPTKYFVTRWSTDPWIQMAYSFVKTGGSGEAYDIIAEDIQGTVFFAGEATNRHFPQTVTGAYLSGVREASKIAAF", "assay": "Selectivity interaction (Proteomics) EUB0000269cCl KDM1B/LSD2", "parameters": "recommended concentration 1 uM"}, "[5]": {"biological_target": "T1, Alpha trans-inducing protein (Human alphaherpesvirus 1) (UniProt A0A5J6DW59)", "T1 sequence (A0A5J6DW59 as listed by the source)": "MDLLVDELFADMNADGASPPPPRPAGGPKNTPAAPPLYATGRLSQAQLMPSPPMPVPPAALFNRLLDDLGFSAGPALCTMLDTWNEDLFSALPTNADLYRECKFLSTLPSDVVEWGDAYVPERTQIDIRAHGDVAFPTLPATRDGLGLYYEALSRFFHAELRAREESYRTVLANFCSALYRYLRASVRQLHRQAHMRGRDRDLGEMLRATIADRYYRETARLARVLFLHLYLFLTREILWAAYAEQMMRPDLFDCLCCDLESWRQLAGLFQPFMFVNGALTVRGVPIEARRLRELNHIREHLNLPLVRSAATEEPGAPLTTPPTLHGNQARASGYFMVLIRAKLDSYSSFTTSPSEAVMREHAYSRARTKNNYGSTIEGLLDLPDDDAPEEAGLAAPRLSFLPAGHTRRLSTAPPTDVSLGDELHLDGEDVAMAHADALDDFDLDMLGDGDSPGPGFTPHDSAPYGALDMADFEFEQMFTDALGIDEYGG", "assay": "Selectivity interaction (Reporter gene assay) EUB0002358a UL48", "parameters": "recommended concentration 10 uM"}, "[6]": {"biological_target": "T2, Nuclear receptor subfamily 2 group C member 1 (Homo sapiens) (UniProt P13056)", "T2 sequence (whole entry)": "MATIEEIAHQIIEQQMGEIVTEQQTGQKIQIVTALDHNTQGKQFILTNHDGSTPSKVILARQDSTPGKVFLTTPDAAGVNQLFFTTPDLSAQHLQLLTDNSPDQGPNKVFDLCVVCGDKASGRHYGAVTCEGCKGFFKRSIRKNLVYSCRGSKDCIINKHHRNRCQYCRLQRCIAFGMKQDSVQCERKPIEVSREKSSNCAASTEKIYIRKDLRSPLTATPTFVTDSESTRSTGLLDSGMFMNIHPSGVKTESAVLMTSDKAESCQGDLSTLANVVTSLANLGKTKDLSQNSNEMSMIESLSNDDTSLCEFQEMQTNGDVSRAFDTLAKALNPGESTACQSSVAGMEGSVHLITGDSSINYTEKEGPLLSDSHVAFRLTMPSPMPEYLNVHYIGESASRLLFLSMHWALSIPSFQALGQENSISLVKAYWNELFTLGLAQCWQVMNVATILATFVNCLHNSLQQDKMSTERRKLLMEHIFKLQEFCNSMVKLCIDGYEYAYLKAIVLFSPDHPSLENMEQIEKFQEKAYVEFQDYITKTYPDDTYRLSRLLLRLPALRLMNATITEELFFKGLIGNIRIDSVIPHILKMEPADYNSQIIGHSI", "assay": "Selectivity interaction (Reporter gene assay) EUB0002358a NR2C1", "parameters": "recommended concentration 10 uM"}, "[7]": {"biological_target": "Steroidogenic factor 1 (Homo sapiens) (UniProt Q13285)", "sequence (Q13285 whole entry)": "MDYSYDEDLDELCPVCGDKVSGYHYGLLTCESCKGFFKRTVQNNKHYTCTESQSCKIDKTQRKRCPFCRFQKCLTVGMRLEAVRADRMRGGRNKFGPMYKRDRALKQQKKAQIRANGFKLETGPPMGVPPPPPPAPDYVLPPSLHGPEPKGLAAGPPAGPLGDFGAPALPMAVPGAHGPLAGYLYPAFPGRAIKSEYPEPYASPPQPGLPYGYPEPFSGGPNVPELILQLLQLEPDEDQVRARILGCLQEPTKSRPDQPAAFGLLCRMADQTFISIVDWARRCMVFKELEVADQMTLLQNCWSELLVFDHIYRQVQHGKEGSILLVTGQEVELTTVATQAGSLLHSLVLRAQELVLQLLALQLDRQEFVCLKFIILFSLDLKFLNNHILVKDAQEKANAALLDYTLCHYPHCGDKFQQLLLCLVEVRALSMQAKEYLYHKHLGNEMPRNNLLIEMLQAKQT", "assay": "Selectivity interaction (Reporter gene assay) EUB0002358a NR5A1", "parameters": "recommended concentration 10 uM"}, "[8]": {"biological_target": "T3, Retinoic acid receptor RXR-alpha (Homo sapiens) (UniProt P19793)", "T3 sequence (whole entry)": "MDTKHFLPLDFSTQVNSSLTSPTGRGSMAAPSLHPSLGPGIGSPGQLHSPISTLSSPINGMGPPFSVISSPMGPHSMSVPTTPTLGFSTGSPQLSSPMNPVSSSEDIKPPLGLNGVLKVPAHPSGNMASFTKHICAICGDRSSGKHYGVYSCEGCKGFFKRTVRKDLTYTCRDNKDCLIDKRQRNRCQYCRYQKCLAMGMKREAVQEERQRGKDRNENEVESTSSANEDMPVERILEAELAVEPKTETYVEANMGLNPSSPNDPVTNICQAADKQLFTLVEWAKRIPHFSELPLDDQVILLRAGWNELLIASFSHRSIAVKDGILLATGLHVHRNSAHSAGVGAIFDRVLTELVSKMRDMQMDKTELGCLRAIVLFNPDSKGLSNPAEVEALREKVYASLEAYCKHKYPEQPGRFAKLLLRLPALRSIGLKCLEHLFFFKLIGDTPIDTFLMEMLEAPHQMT", "assay": "Selectivity interaction (Reporter gene assay) EUB0002358a RXRA", "parameters": "recommended concentration 10 uM", "conditions": "reference bexarotene 1 uM, Selectivity number of off-targets 0.0, Selectivity number of targets 1.0, Source Knowledge inhouse"}, "[9]": {"biological_target": "T4, Hepatocyte nuclear factor 4-alpha (Homo sapiens) (UniProt P41235)", "T4 sequence (whole entry)": "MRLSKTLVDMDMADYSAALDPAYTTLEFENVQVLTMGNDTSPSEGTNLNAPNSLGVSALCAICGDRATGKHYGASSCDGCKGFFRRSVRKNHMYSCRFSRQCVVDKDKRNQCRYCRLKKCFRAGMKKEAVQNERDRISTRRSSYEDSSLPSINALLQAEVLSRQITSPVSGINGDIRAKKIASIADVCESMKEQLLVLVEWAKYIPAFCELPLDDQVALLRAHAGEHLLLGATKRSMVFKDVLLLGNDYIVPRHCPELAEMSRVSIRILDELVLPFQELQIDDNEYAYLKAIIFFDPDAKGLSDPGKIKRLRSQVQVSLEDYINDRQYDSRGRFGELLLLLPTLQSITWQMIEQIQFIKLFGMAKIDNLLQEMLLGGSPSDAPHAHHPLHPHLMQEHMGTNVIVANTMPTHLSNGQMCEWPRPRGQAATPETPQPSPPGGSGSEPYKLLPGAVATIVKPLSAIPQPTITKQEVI", "assay": "Selectivity interaction (Reporter gene assay) EUB0002358a HNF4A", "parameters": "recommended concentration 10 uM"}, "[10]": {"biological_target": "Nuclear receptor subfamily 2 group E member 1 (Homo sapiens) (UniProt Q9Y466)", "sequence (Q9Y466 whole entry)": "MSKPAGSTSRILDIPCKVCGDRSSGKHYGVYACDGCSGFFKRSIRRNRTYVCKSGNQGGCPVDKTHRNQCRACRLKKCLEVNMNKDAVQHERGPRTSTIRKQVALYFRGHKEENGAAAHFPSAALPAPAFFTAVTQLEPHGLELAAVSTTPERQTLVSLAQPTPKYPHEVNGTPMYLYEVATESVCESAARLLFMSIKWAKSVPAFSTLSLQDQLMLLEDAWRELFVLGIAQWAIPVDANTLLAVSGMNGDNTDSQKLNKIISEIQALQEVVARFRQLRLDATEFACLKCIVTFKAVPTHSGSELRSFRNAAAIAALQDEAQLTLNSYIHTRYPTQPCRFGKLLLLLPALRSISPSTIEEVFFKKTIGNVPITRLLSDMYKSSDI", "assay": "Selectivity interaction (Reporter gene assay) EUB0002358a NR2E1", "parameters": "recommended concentration 10 uM"}, "[11]": {"biological_target": "Nuclear receptor subfamily 4immunitygroup A member 1 (Homo sapiens) (UniProt P22736)", "sequence (P22736 whole entry)": "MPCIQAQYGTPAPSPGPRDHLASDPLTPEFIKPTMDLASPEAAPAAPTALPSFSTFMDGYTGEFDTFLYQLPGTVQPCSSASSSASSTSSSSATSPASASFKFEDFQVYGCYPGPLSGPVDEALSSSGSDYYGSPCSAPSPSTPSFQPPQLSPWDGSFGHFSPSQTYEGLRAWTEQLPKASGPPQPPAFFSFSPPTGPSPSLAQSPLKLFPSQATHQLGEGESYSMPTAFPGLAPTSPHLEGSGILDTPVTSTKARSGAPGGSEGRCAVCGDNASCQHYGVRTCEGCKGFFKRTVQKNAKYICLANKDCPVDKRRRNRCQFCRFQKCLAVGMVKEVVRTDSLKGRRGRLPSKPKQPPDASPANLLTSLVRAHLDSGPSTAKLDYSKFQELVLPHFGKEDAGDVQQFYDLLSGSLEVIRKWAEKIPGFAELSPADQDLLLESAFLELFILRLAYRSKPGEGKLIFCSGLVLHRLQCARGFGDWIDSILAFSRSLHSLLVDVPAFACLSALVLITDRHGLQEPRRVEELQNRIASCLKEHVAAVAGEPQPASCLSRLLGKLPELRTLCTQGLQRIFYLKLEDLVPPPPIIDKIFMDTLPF", "assay": "Selectivity interaction (Reporter gene assay) EUB0002358a NR4A1", "parameters": "recommended concentration 10 uM"}, "[12]": {"biological_target": "T1, Alpha trans-inducing protein (Human alphaherpesvirus 1)", "assay": "Selectivity interaction (Reporter gene assay) EUB0002359a UL48", "parameters": "recommended concentration 1 uM"}, "[13]": {"biological_target": "Nuclear receptor subfamily 4immunitygroup A member 1 (Homo sapiens) (UniProt P22736)", "assay": "Selectivity interaction (Reporter gene assay) EUB0002359a NR4A1", "parameters": "recommended concentration 1 uM"}, "[14]": {"biological_target": "Steroidogenic factor 1 (Homo sapiens) (UniProt Q13285)", "assay": "Selectivity interaction (Reporter gene assay) EUB0002359a NR5A1", "parameters": "recommended concentration 1 uM"}, "[15]": {"biological_target": "T4, Hepatocyte nuclear factor 4-alpha (Homo sapiens)", "assay": "Selectivity interaction (Reporter gene assay) EUB0002359a HNF4A", "parameters": "recommended concentration 1 uM"}, "[16]": {"biological_target": "Nuclear receptor subfamily 2 group E member 1 (Homo sapiens) (UniProt Q9Y466)", "assay": "Selectivity interaction (Reporter gene assay) EUB0002359a NR2E1", "parameters": "recommended concentration 1 uM"}, "[17]": {"biological_target": "T3, Retinoic acid receptor RXR-alpha (Homo sapiens)", "assay": "Selectivity interaction (Reporter gene assay) EUB0002359a RXRA", "parameters": "recommended concentration 1 uM", "conditions": "reference bexarotene 1 uM, Selectivity number of off-targets 0.0, Selectivity number of targets 1.0, Source Knowledge inhouse"}, "[18]": {"biological_target": "T2, Nuclear receptor subfamily 2 group C member 1 (Homo sapiens)", "assay": "Selectivity interaction (Reporter gene assay) EUB0002359a NR2C1", "parameters": "recommended concentration 1 uM"}, "[19]": {"biological_target": "T5, Bromodomain-containing protein 9 (Homo sapiens, UniProt Q9H8M2)", "T5 sequence (Q9H8M2 whole entry)": "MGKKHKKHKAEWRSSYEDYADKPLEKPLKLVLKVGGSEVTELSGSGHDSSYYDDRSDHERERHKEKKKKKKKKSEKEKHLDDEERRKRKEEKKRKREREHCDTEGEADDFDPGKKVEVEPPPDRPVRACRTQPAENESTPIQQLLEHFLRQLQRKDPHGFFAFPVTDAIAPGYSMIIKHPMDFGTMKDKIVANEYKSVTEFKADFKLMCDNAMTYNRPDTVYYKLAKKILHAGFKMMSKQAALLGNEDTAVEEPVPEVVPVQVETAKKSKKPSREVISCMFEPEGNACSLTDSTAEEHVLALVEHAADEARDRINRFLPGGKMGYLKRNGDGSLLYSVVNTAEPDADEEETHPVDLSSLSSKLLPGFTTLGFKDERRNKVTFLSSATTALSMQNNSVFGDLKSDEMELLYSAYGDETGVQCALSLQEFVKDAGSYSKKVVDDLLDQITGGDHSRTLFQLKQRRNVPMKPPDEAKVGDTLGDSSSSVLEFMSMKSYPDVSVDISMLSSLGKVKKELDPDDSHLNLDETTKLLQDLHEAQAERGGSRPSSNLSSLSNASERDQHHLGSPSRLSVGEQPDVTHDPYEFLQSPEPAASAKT", "assay": "(§1) Selectivity interaction (Bromodomain panel) EUB0000233b BRD9", "parameters": "recommended concentration 1 uM"}, "[20]": {"biological_target": "T5, Bromodomain-containing protein 9", "assay": "as §1", "parameters": "recommended concentration 1 uM", "remark": "listed apart in the source"}, "[21]": {"biological_target": "T5, Bromodomain-containing protein 9", "assay": "as §1", "parameters": "recommended concentration 1 uM", "remark": "listed apart in the source"}}, "data": [{"smiles": "N#Cc1ccc(-c2c3n(c4cccnc24)CCN(C2CC2)C3=O)cc1F", "values": [{"measurement": "inhibition", "setting": "[1]", "result": 61.8, "unit": "%"}, {"measurement": "inhibition", "setting": "[2]", "result": 82.1, "unit": "%"}]}, {"smiles": "Cc1cc(CN)cc(C)c1-c1ncn(C)c1-c1ccnc2cc(F)ccc12", "values": [{"measurement": "IC50", "setting": "[3]", "result": "> 1000", "unit": "µM"}, {"measurement": "IC50", "setting": "[4]", "result": "> 100", "unit": "µM"}]}, {"smiles": "O=c1[nH]c2ccccc2n1CCCN1CCN(C(c2ccccc2)c2ccccc2)CC1", "values": [{"measurement": "P-value", "setting": "[5]", "result": "6e-08"}, {"measurement": "Fold activation", "setting": "[6]", "result": 0.803}, {"measurement": "Remaining activity", "setting": "[7]", "result": 1.07}, {"measurement": "Relative activation", "setting": "[8]", "result": 0.76, "unit": "%"}, {"measurement": "Fold activation", "setting": "[9]", "result": 0.736}, {"measurement": "Fold activation", "setting": "[10]", "result": 0.661}, {"measurement": "Fold activation", "setting": "[11]", "result": 1.16}]}, {"smiles": "CC(C)c1c(CN(C)C(C)Cc2ccccc2)n(C)n(-c2ccccc2)c1=O", "note": "(stereo unspecified)", "values": [{"measurement": "P-value", "setting": "[12]", "result": 0.00161}, {"measurement": "Remaining activity", "setting": "[13]", "result": 0.96}, {"measurement": "Fold activation", "setting": "[14]", "result": 1.12}, {"measurement": "Fold activation", "setting": "[15]", "result": 1.15}, {"measurement": "Remaining activity", "setting": "[16]", "result": 0.769}, {"measurement": "Relative activation", "setting": "[17]", "result": 0.69, "unit": "%"}, {"measurement": "Fold activation", "setting": "[18]", "result": 1.13}]}, {"smiles": "CN(C)CCCOc1ccc(-c2cc(NCCCn3cccn3)nc(S(C)(=O)=O)n2)cc1", "values": [{"measurement": "IC50", "setting": "[19]", "result": 1.4, "unit": "µM"}, {"measurement": "IC50", "setting": "[20]", "result": 1.4, "unit": "µM"}, {"measurement": "IC50", "setting": "[21]", "result": 1.4, "unit": "µM"}]}]}
